Measurements reported in article PMC7924852, “The Emericellipsins A–E from an Alkalophilic Fungus Emericellopsis alkalina Show Potent Activity against Multidrug-Resistant Pathogenic Fungi” (Journal of Fungi, 2021).

Columns and labels:
C. parapsilosis 571 = test: Broth microdilution MIC and MFC (CLSI); type: cell-based
A. terreus 3 K = test: Disc-diffusion antifungal assay; type: cell-based; conditions: 40 µg/disc
A. fumigatus VKM F-37 = test: Broth two-fold microdilution MIC (CLSI); type: cell-based, Aspergillus fumigatus; conditions: A. fumigatus VKM F-37; RPMI 1640 pH 7.0, 35 °C, 48 h
human erythrocytes = test: Hemolytic activity; type: cell-based; conditions: for hemolytic activity (in words): concentrations of 0–20 μM
Protocol: Erythrocytes were isolated from the peripheral blood of healthy donors after incubation at 4 °C for 2–3 h. All the donors are males, 35–38 years old. All of them have approved to collect blood samples, and the authors have permissions filled. All the blood samples have been destroyed after the experiments finished. The red blood cell suspension (100 μL) was pelleted, washed twice with saline, then the pellet was resuspended in 500 μL saline or distilled water (positive control of hemolysis). The compounds were added (final concentration of 20 μM). The samples were incubated for 1 h at 37 °C and centrifuged at 2000 rpm for 1.5 min. The OD of supernatants was measured on a Multiscan spectrophotometer FC (Thermo Scientific, Waltham, MA, USA) at a wavelength of 540 nm. The percent hemolysis was calculated relative to the positive control, taken as 100%.
Erythrocytes were isolated from the human blood: On the day of the study, blood was taken from the donor’s cubital vein into a test tube with an anticoagulant. The blood was incubated at 4 °C for 2‒3 h. A suspension of erythrocytes (100 μL) was diluted with a physiological buffer (pH 7.2) to a total volume of 500 μL. Solutions of the test substances with an initial concentration of […] (DMSO) were diluted with a PBS buffer (1:10). The resulting solutions were introduced into Eppendorf tubes in the amounts required to create the studied concentration (5, 10, or 20 μM). A mixture of PBS with erythrocytes was added to a total volume of 200 μL. The control (C) was a mixture of erythrocytes with H2O (100% of hemolysis). The intact control solution (I) was a mixture of erythrocytes with the PBS and solvent (DMSO). The antibiotic gramicidin S (Gram S) was used as a control sample with active hemolysis. The mixture was incubated for 1 h at 37 °C. The measurement of the optical density of the supernatants was carried out on a BioTek ELx800 automatic microplate photometer (USA) at 570 nm. The optical density of the liquid above the sediment in the control sample with H2O was taken as 100%.

[1] = system: clinical isolates of Candida; test: Disc-diffusion antifungal assay, clinical yeast isolates; type: cell-based; conditions: range over clinical isolates of Candida (Figure S2)
A. fumigatus 390 m = test: Broth two-fold microdilution MIC (CLSI); type: cell-based, Aspergillus fumigatus; conditions: A. fumigatus 390 m clinical isolate; RPMI 1640 pH 7.0, 35 °C, 48 h
[2] = system: reference and clinical strains of Aspergillus; test: Disc-diffusion antifungal assay, Aspergillus strains; type: cell-based; conditions: range over clinical isolates of Aspergillus (Figure S2)
C. tropicalis 156 = test: Broth microdilution MIC and MFC (CLSI); type: cell-based
A. terreus 497 = test: Broth two-fold microdilution MIC (CLSI); type: cell-based; conditions: A. terreus 497 clinical isolate; RPMI 1640 pH 7.0, 35 °C, 48 h
Candida albicans 1402 = test: Broth microdilution MIC and MFC (CLSI); type: cell-based

Methyldecanoyl-MePro-AHMOD-Ala-Aib-Ile-Iva-βAla-Alaol-Glyol [EmiA, emericellipsin A, nonribosomal lipopeptaibol, major compound of E. alkalina VKPM F1428]
MFC (C. parapsilosis 571; C. parapsilosis 571, lowest concentration causing 95% death): 1 µg/mL
MIC (C. parapsilosis 571; C. parapsilosis 571 clinical isolate, RPMI 1640 pH 7.0, 35 °C, 24 h): 1 µg/mL
Zone of Inhibition (A. terreus 3 K): 12 ± 0.25 mm
Minimal Inhibitory Concentration (MIC) (A. fumigatus VKM F-37): 2 µg/mL
hemolysis (human erythrocytes; 20 μM, 1 h, 37 °C, relative to H2O control = 100%, OD 540 nm or 570 nm, triplicate, mean): approximately 12.6%
hemolytic activity (in words) (human erythrocytes): no hemolytic activity
hemolytic activity (in words) (human erythrocytes; listed as Emericellipsin A): negligible hemolytic activity
inhibition zones [1]: 20–25 mm
Minimal Inhibitory Concentration (MIC) (A. fumigatus 390 m): 2 µg/mL
inhibition zones [2]: 15–19 mm
MFC (C. tropicalis 156; C. tropicalis 156, lowest concentration causing 95% death): 2 µg/mL
MIC (C. tropicalis 156; C. tropicalis 156 clinical isolate, RPMI 1640 pH 7.0, 35 °C, 24 h): 1 µg/mL
Minimal Inhibitory Concentration (MIC) (A. terreus 497): 1 µg/mL
MFC (Candida albicans 1402; Candida albicans 1402, lowest concentration causing 95% death, plated on PDA agar): 4 µg/mL
MIC (Candida albicans 1402; Candida albicans 1402 clinical isolate, RPMI 1640 pH 7.0, 35 °C, 24 h): 2 µg/mL
